The test system of one data set is A549 cells. Kind of data set: alamarBlue viability assay, GI50. The settings on record: 72 h, given in μM Gemcitabine. The class given is cell-based, human. The method, then:
(§1) A study was carried out to determine the ability of example dendrimers to inhibit growth of cancer cell lines using an alamarBlue viability assay (Thermo Fisher, DAL1025).
(§2) The cytotoxicity of compounds toward MDA-MB-231, A549, H460, BxPC3 and CAPAN-1 cells were evaluated for viability. Cells were seeded at a density of 1.2-5×10^3 cells, dependent on cell growth rate, in 96 well plates and incubated overnight. Cells were then treated with serial dilutions of test compositions for 72 h (MDA-MB-231, A549 and H460 lines) or 144 h (BxPC3 and CAPAN-1 lines). For cell viability analysis, 10% media volume of alamar Blue was added during the final 6-8 h of incubation. Reduction of alamarBlue in living cells yields a red fluorescent metabolite that can be read on a plate reader (560 nm excitation/610 nm emission.). Cell viability and subsequent GI50 values were was determined from the blank corrected dose-response curves, with 4-parameter nonlinear curve fit, in GraphPad Prism.
In general terms: The colour change of resazurin is a common sign of viable cells or microbes.

In a further data set the test system is CAPAN-1 cells. Nature of the data set: alamarBlue viability assay, GI50. It counts as cell-based, human. The settings on record: 144 h, given in μM Gemcitabine. How it is done: as §1, §2
The next data set concerns H460 cells. Kind of data set: alamarBlue viability assay, GI50. The class given is cell-based. The settings on record: given in μM Gemcitabine. How it is done:
as §1, §2

The subject of a further data set is BxPC3 cells. Kind of data set: alamarBlue viability assay, GI50. It counts as cell-based. The conditions noted are these: BxPC-3, 144 h, given in μM Gemcitabine. The method, then: as §1, §2
The test system of the next data set is MDA-MB-231 cells. Nature of the data set: alamarBlue viability assay, GI50. The class given is cell-based. The conditions noted are these: 72 h, given in μM Gemcitabine. The method, then: as §1, §2
Data set [1] has as its system CAPAN-1 tumour xenografts. Nature of the data set: CAPAN-1 mouse xenograft, alone or with Abraxane or DEP-DTX (Examples 13a, 13b). The class given is in vivo. The settings on record: day 29; i.v.; Gemcitabine 120, Abraxane 40, 3 at 6.5, 6 at 5 (day 1) then 4, DEP-DTX 24 (10 in combination) mg/kg. The method, then: Mice were inoculated and tumours sized as described above. On day nineteen after implantation, mice with similar sized tumours (mean tumour volume 100 mm^3) were randomised into 7 groups of 10 animals. […] Abraxane® was dissolved in saline solution immediately prior to dosing.
Abraxane®, gemcitabine and dendrimers were administered at days 1, 10, and 17 via tail vein i.v. injection, at 0.1 ml/10 g body weight.
In an extension of Example 13a, two additional groups of mice were prepared and dosed to assess the anti-tumour efficacy properties of a taxane-dendrimer combined with a nucleoside analogue-dendrimer (e.g. 6). Mice were inoculated and tumours sized as described above.
Dendrimers were administered weekly via tail vein i.v. injection, at 0.1 ml/10 g body weight for 3 weeks.
All statistical analyses were performed using GraphPad Prism 8.1.

For data set [2], the system named is CAPAN-1 tumour xenografts. Kind of data set: CAPAN-1 mouse xenograft pancreatic cancer model, efficacy vs gemcitabine (Example 11). The class given is in vivo. The conditions noted are these: for Tumour Growth inhibition (%) v vehicle: day 29, Gemcitabine 120, 1 at 2, 4 at 5, 2 at 5, 5 at 3 mg/kg; for Tumour Growth inhibition (%) v vehicle / effect on CAPAN-1 tumours over the dosing study (FIG. 4): i.v. twice weekly for 3 weeks; for survival compared to Gemcitabine (Kaplan-Meier): P<0.0001 Mantel Cox, Gemcitabine 120 mg/kg; for effect on CAPAN-1 tumours over the dosing study (FIG. 4): 4 at 5, 2 at 5, 5 at 3 mg/kg. How it is done: A CAPAN-1 (human pancreatic adenocarcinoma cell line) mouse xenograft pancreatic cancer model study was carried out to assess the anti-tumour efficacy properties of example dendrimers compared to gemcitabine.
Compounds 1, 4, 2 and 5 were prepared by dissolving in sterile saline solution immediately prior to dosing and. Gemcitabine ((DBL™ Gemcitabine injection, Hospira Pty Ltd.) was further diluted in saline solution prior to dosing.
Female NOD-SCID Interleukin-2 receptor gamma chain null mice (aged 9 weeks) were inoculated subcutaneously on the flank with 5×10^6 CAPAN-1 cells in PBS:Matrigel (1:1). Mice were weighed and tumours measured twice weekly using electronic callipers. Tumour volume (mm^3) was calculated as length (mm)/2×width (mm)^2. On day seventeen after implantation, mice with similar sized tumours (mean tumour volume 100 mm^3) were randomised into 6 groups of 10 animals.
Compounds were administered via tail vein i.v. injection, twice weekly at […] for 3 weeks. Groups were dosed as follows: • 1. Saline—vehicle • 2. Gemcitabine (120 mg/kg, i.v.) • 3. 1 (2 mg/kg, i.v.) • 4. 4 (5 mg/kg, i.v.) • 5. 2 (5 mg/kg, i.v.) • 6. 5 (3 mg/kg, i.v.)
Tumour growth inhibition was analysed at day 29 (where all vehicle animals remained in the study) using one-way ANOVA followed by Dunnett's multiple comparison test. Tumour growth curves of gemcitabine and DEP-gemcitabine were compared over 47 days (when all treatment group animals remained in the study for tumour-related endpoints) using a mixed-effects model followed by Tukey's multiple comparison test. […] All statistical analysis was performed using GraphPad Prism 8.1.

For data set [3], the system named is CAPAN-1 tumour xenografts. Kind of data set: CAPAN-1 mouse xenograft, dosing regimen study (Example 12). It counts as in vivo. The conditions noted are these: 5 mg/kg i.v. weekly for 3 weeks compared to 2 mg/kg i.v. biweekly for 3 weeks. The method, then:
A CAPAN-1 (human pancreatic adenocarcinoma cell line) mouse xenograft pancreatic cancer model was established to assess the effects of weekly compared to biweekly administration of an example dendrimer.
Compound 1 was prepared as described above. Mice were inoculated and tumours sized as described above. On day seventeen after implantation, mice with similar sized tumours (mean tumour volume 140 mm^3) were randomised into 2 groups of 5 animals: • 1. 1 (5 mg/kg, i.v.) weekly for 3 weeks; and • 2. 1 (2 mg/kg, i.v.) biweekly for 3 weeks.

The nature of a further data set: Plasma release study. The class given is in vitro ADME. The conditions noted are these: 37° C. The method, then:
The plasma was placed in a CO2 incubator at 3% CO2 at 42% relative humidity to reach a pH of 7.4.
Gemcitabine HCl (28.5 mg) was dissolved in Milli Q water and the resulting stock solution transferred to a 5 mL volumetric flask and diluted to provide working standard solutions.
The plasma release study was conducted by adding 1 mL of plasma (centrifuged and filtered) to 0.2 mL of dendrimer solution (approximately 2 mg/mL gemcitabine equivalent in miliQ water) for example dendrimers and a comparator. The mixtures were vortexed (30 sec) then incubated at 37° C. 5% CO2. At various timepoints aliquots (0.1 mL) were removed and added to ACN (0.2 mL). The resulting mixtures were vortexed (30 s), centrifuged (10 min, 4° C.), filtered and analysed by HPLC (C8 Xbridge, 3×100 mm, […], 0.4 mL/min., gradient: 5% ACN/H2O) (0-1 min), 5-80% ACN (1-7 min), 80% ACN (7-12 min), 80-5% ACN (12-13 min), 5% ACN (13-15 min), 100 mM ammonium formate buffer, column temperature 50° C., sample tray 4° C., 260 nm.

As a reminder, the GI50 is the concentration that inhibits growth by half. As for `Nc1ccn([C@@H]2O[C@H](CO)[C@@H](O)C2(F)F)c(=O)n1` [Gemcitabine, gemcitabine, reference compound], the GI50 with A549 cells (Homo sapiens) was determined as 0.011 µM; with CAPAN-1 cells (Homo sapiens), 0.009 µM; with H460 cells (Homo sapiens, NCI-H460, 72 h), 0.042 µM; in the data set on BxPC3 cells (Homo sapiens) it was 0.009 µM; in the data set with MDA-MB-231 cells (Homo sapiens) it was 0.004 µM. Further, the “Tumour Growth inhibition (%) v vehicle at day 29” value in data set [1] is listed as 59%. Moreover, the “Tumour Growth inhibition (%) v vehicle” value in [2] is given as 84%.
With “BHALys[Lys]32[α-TDA-DTX]32[ε-PolyPEG2000]32 [DEP-DTX, reference compound]”, in data set [1], the “Tumour Growth inhibition (%) v vehicle at day 29” value came to 108%.
Take “[BHA Lys][Lys]30[Lys]32 [Compound 1, [BHA Lys][Lys]30[Lys]32 [(α-NH-TDA-Gemcitabine)32 (ε-NHPEG˜1100)32]]”: the GI50 in the data set with A549 cells came out at 0.051 µM; in the data set on CAPAN-1 cells it was 0.033 µM; with H460 cells (72 h), 0.215 µM; with BxPC3 cells, 0.007 µM. Further, the “Tumour Growth inhibition (%) v vehicle” value in [2] was determined as 75%. The “suppression of tumour growth, weekly vs biweekly regimen (FIG. 5)” value in data set [3] is given as “more effective at suppressing tumour growth than 1, given biweekly at 2 mg/kg”.
Take “[BHA Lys][Lys]30[Lys]32 [Compound 2, [BHA Lys][Lys]30[Lys]32 [(α-NH-TDA-Gemcitabine)32 (ε-NHPEG570)32]]”: the concentration for 50% growth inhibition (GI50) in the data set on A549 cells worked out at 0.034 µM; in the data set with CAPAN-1 cells, 0.021 µM; in the data set with H460 cells (72 h), 0.412 µM; in the data set with MDA-MB-231 cells, 0.004 µM. Further, the “survival compared to Gemcitabine (Kaplan-Meier)” value (“survival compared to Gemcitabine” for short) in data set [2] is “significantly extended survival beyond that of Gemcitabine”. Moreover, the “Tumour Growth inhibition (%) v vehicle” value in data set [2] is on record as 94%. Further, in data set [2], the “effect on CAPAN-1 tumours over the dosing study (FIG. 4)” value (shortened to “effect … over the dosing study (FIG. 4)”) is “complete stasis”.
Regarding “[BHA Lys][Lys]30[Lys]32 [Compound 4, [BHA Lys][Lys]30[Lys]32 [(α-NH-DGA-Gemcitabine)32 (ε-NHPEG˜570)32]]”, the GI50 was 0.031 µM with A549 cells; 0.011 µM in the data set with CAPAN-1 cells; 0.061 µM with H460 cells (72 h); 0.013 µM in the data set on BxPC3 cells; 0.003 µM in the data set on MDA-MB-231 cells. Further, the “survival compared to Gemcitabine” value in [2] is “significantly extended survival beyond that of Gemcitabine”. Also, the “Tumour Growth inhibition (%) v vehicle” value in data set [2] came out at 91%. Further, the “effect … over the dosing study (FIG. 4)” value in data set [2] was “complete stasis”.
As to “[BHA Lys][Lys]30[Lys]32 [Compound 5, [BHA Lys][Lys]30[Lys]32 [(α-NH-DGA-Gemcitabine)32 (ε-NHPEG˜1100)32]]”, the concentration for 50% growth inhibition (GI50) came to 0.044 µM in the data set with A549 cells, 0.003 µM with CAPAN-1 cells, 0.046 µM in the data set on H460 cells (72 h) and 0.003 µM in the data set on MDA-MB-231 cells. Moreover, the “survival compared to Gemcitabine” value in data set [2] is reported as “significantly extended survival beyond that of Gemcitabine”. Besides, the “Tumour Growth inhibition (%) v vehicle” value in [2] was 94%. Moreover, the “effect … over the dosing study (FIG. 4)” value in data set [2] is recorded as “complete stasis”.
As to “[BHA Lys][Lys]30[Lys]32 [Compound 6, [BHA Lys][Lys]30[Lys]32 [(α-NH-DGA-Gemcitabine)32 (ε-NHPEG˜2100)32]]”, the GI50 in the data set with A549 cells is 0.045 µM; in the data set with CAPAN-1 cells, 0.006 µM; in the data set on H460 cells (72 h) it was 0.056 µM; in the data set on BxPC3 cells, 0.001 µM; in the data set on MDA-MB-231 cells it was 0.005 µM. Moreover, the “Tumour Growth inhibition (%) v vehicle at day 29” value in data set [1] turned out to be 83%. In addition, the “Human Plasma % release” value in “Plasma release study” (0 h) turned out to be 0.49%; in “Plasma release study” (2 h), 9.94%; in the data set “Plasma release study” (4 h), 18.18%; in “Plasma release study” (6 h), 39.84%; in the data set “Plasma release study” (24 h), 71.13%; in the data set “Plasma release study” (30 h), 77.98%.
As for “[BHA Lys][Lys]30[Lys]32 [Compound 8, [BHA Lys][Lys]30[Lys]32 [(α-NH-Glu-Gemcitabine)32 (ε-NHPEG˜2100)32]]”, the GI50 in the data set on A549 cells is 0.5 µM; with MDA-MB-231 cells it was 0.103 µM. The “Human Plasma % release” value was −0.17% in the data set “Plasma release study” (0 h); 0.22% in the data set “Plasma release study” (2 h); −1.99% in “Plasma release study” (4 h); 3.02% in the data set “Plasma release study” (6 h); 6.19% in the data set “Plasma release study” (24 h); 5.39% in “Plasma release study” (30 h).

Source of the values: patent US12616711B2, “Therapeutic dendrimer” (Starpharma Pty Ltd, priority 2019, dated 2026).
